47 molecules from US7449465B2, “Triazolopyrimidine derivatives as glycogen synthase kinase 3 inhibitors” (Janssen Pharmaceutica, N.V., priority 2003, dated 2008) can be followed below.

Sequence of GSK3alpha (P49840 whole entry, species assumed): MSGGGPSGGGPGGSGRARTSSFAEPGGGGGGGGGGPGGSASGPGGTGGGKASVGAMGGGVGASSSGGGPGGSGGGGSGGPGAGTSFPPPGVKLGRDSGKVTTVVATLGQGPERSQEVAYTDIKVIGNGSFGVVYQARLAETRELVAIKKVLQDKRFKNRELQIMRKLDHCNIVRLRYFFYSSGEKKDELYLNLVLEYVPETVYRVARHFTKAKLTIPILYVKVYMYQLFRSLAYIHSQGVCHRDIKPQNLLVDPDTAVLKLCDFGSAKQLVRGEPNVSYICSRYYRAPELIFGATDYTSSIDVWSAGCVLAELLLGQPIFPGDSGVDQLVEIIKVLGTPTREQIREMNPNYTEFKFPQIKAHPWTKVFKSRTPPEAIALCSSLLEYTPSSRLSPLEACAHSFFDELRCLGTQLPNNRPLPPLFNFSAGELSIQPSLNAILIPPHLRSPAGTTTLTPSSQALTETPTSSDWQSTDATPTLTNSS

For the first experiment, the target named is GSK3β (Homo sapiens, UniProt P49841). Put plainly: GSK3beta assay (SPA, biotinylated phosphorylated CREB peptide, ATP-P33). The class given is biochemical. Particulars: ranges of pIC50 (−log IC50 (M)); 1 μM ATP, room temperature, one hour; read-out: GSK3b pIC50 (converted). The protocol: (§1) GSK3beta assays were performed at room temperature in a 100 μl reaction volume of 25 mM Tris (pH 7.4) containing 10 mM MgCl2.6H2O, 1 mM DTI, 0.1 mgiml BSA, 5% glycerol and containing 5.7 ng/μl GSK3β, 5 μM biotinylated phosphorylated CREB peptide, 1 μM ATP, 0.85 μCi/ml ATP-P^33 and a suitable amount of a test compound of formula (I). After one hour, the reaction was terminated by adding 70 μl of Stop mix (0.1 mM ATP, 5 mg/ml streptavidin coated PVT SPA bead pH 11.0). The beads to which the phosphorylated CREB peptide is attached were allowed to settle overnight and the radioactivity of the beads was counted in a microtiterplate scintillation counter and compared with the results obtained in a control experiment (without the presence of a test compound) in order to determine the percentage of GSK3β inhibition. The IC50 value, i.e. the concentration (M) of the test compound at which 50% of GSK3β is inhibited, was calculated from the dose response curve obtained by performing the above-described GSK3β assay in the presence of different amounts of the test compound.
Sequence of GSK3β (P49841 whole entry, species assumed): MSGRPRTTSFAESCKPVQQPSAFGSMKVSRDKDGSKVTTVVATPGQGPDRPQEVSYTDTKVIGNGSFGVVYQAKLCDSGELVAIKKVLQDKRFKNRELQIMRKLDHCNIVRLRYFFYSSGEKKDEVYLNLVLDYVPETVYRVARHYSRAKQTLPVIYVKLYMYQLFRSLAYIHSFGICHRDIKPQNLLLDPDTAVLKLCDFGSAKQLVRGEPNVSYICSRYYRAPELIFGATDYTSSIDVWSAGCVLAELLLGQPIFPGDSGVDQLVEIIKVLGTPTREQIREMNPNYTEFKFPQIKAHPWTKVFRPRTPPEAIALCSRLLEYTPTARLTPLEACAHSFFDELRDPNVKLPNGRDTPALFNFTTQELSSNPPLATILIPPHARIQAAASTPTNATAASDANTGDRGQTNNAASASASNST
On to `Fc1cccc(-n2nnc3cnc(Nc4cccc(-c5cc[nH]n5)c4)nc32)c1` [Compound 22], for which the IC50 is less than 1e-08 M.
Same read-out and setting: the result for `Cc1nc(-c2cccc(Nc3ncc4nnn(-c5cccc(F)c5)c4n3)c2)cs1` [Compound 21] reads less than 1e-08 M; that for `COCCOCc1cccc(-n2nnc3cnc(Nc4ccc(CN5CCC(O)CC5)cc4)nc32)c1` [Compound 110], 1e-08 to 1e-07 M.
Same read-out and setting: next, `OCCc1cccc(-n2nnc3cnc(Nc4cccc(-c5nnn[nH]5)c4)nc32)c1` [Compound 75]: 1e-08 M.
In the case of `Cc1nccc(-c2cccc(Nc3ncc4nnn(-c5cccc(F)c5)c4n3)c2)n1` [Compound 32], the IC50 was less than 1e-08 M.
The same measure, in the same setting: the result for `Nc1nccc(-c2cccc(Nc3ncc4nnn(-c5ccccc5)c4n3)c2)n1` [Compound 151] reads less than 1e-08 M; that for `COCCOc1cccc(-n2nnc3cnc(Nc4ccc(OCCCN5CCN(C)CC5)cc4)nc32)c1` [Compound 135], 1e-08 to 1e-07 M; that for `COc1cc(-n2nnc3cnc(Nc4cccc(-c5nccn5C)c4)nc32)cc(C(F)(F)F)c1` [Compound 63], less than 1e-08 M.
Same read-out and setting: next, `CC(=O)NCc1cccc(-n2nnc3cnc(Nc4cccc(-c5nnnn5C)c4)nc32)c1` [Compound 116]: less than 1e-08 M.
The same measure, in the same setting: next, `COc1cccc(-n2nnc3cnc(Nc4cccc(-c5cnco5)c4)nc32)c1` [Compound 16]: less than 1e-08 M.
Regarding `CN1CCN(Cc2ccc(Nc3ncc4nnn(-c5cccc(CCO)c5)c4n3)cc2)CC1` [Compound 78], the IC50 is less than 1e-08 M.
On the same count and under the same terms, the result for `CN1CCN(c2ccc(Nc3ncc4nnn(-c5cccc(CCO)c5)c4n3)cc2)CC1` [Compound 77] reads less than 1e-08 M; that for `COc1cccc(-n2nnc3cnc(Nc4cccc(N5CCN(C)CC5)c4)nc32)c1` [Compound 129], 1e-08 to 1e-07 M; that for `Fc1cccc(-n2nnc3cnc(Nc4ccc(-c5cnco5)cc4)nc32)c1` [Compound 38], 1e-08 to 1e-07 M.
Still for that read-out and setting: the result for `COc1cccc(-n2nnc3cnc(Nc4cccc(-c5nnnn5C)c4)nc32)c1` [Compound 128] reads less than 1e-08 M; that for `CN1CCN(c2cccc(Nc3ncc4nnn(-c5cccc(F)c5)c4n3)c2)CC1` [Compound 36], less than 1e-08 M; that for `Cn1nnnc1-c1cccc(Nc2ncc3nnn(-c4cccc(CCO)c4)c3n2)c1` [Compound 76], less than 1e-08 M.
On the same count and under the same terms, next, `Cn1cc(Br)c(-c2cccc(Nc3ncc4nnn(-c5cccc(CCO)c5)c4n3)c2)n1` [Compound 152]: less than 1e-08 M.
With `Fc1cccc(-n2nnc3cnc(Nc4cccc(-c5cnco5)c4)nc32)c1` [Compound 20], the IC50 is less than 1e-08 M.
Still for that read-out and setting: next, `Fc1cccc(-n2nnc3cnc(Nc4ccc(-n5cccc5)cc4)nc32)c1` [Compound 37]: more than 1e-07 M.
For `COCCOCc1cccc(-n2nnc3cnc(Nc4ccc(OCCCN5CCN(C)CC5)cc4)nc32)c1` [Compound 113], the IC50 was 1e-08 to 1e-07 M.
Still for that read-out and setting: the result for `Cc1nccc(-c2cccc(Nc3ncc4nnn(-c5cccc(Br)c5)c4n3)c2)n1` [Compound 48] reads 1e-08 to 1e-07 M; that for `COCc1cccc(-n2nnc3cnc(Nc4ccc(C(=O)N5CCN(C)CC5)cc4)nc32)c1` [Compound 103], less than 1e-08 M.
The same measure, in the same setting: the result for `COCCOCc1cccc(-n2nnc3cnc(Nc4ccc(N5CCN(C)CC5)cc4)nc32)c1` [Compound 108] reads less than 1e-08 M; that for `COCc1cccc(-n2nnc3cnc(Nc4ccc(OCCCN5CCN(C)CC5)cc4)nc32)c1` [Compound 106], 1e-08 M.
As to `Fc1cccc(-n2nnc3cnc(Nc4ccc(OCCCN5CCCCC5)cc4)nc32)c1` [Compound 142], the IC50 is 1e-08 to 1e-07 M.
On the same count and under the same terms, next, `COc1cccc(-n2nnc3cnc(Nc4cccc(-c5ccnc(N)n5)c4)nc32)c1` [Compound 19]: less than 1e-08 M; `CN1CCN(CCOc2ccc(Nc3ncc4nnn(-c5cccc(CCO)c5)c4n3)cc2)CC1` [Compound 82]: 1e-08 M.
For `Cn1cc(Br)c(-c2cccc(Nc3ncc4nnn(-c5cccc(Br)c5)c4n3)c2)n1` [Compound 45], the IC50 is 1e-08 to 1e-07 M.
On the same count and under the same terms, the result for `CC(=O)N(C)c1ccc(-n2nnc3cnc(Nc4cccc(-c5nccn5C)c4)nc32)cc1` [Compound 57] reads more than 1e-07 M; that for `COc1ccc(-n2nnc3cnc(Nc4cccc(-c5nccn5C)c4)nc32)cc1` [Compound 3], less than 1e-08 M.
On to `Cn1ccnc1-c1cccc(Nc2ncc3nnn(-c4ccc5c(c4)CCC5)c3n2)c1` [Compound 65], for which the IC50 was less than 1e-08 M.
On the same count and under the same terms, next, `Cn1ccnc1-c1cccc(Nc2ncc3nnn(-c4ccc5cn[nH]c5c4)c3n2)c1` [Compound 148]: 1e-08 to 1e-07 M; `Cn1ccnc1-c1cccc(Nc2ncc3nnn(-c4ccc(Br)cc4)c3n2)c1` [Compound 49]: 1e-08 to 1e-07 M; `Cn1ccnc1-c1cccc(Nc2ncc3nnn(-c4ccc5c(c4)OCCO5)c3n2)c1` [Compound 66]: less than 1e-08 M.
Same read-out and setting: next, `Cc1ccc(-n2nnc3cnc(Nc4cccc(-c5nccn5C)c4)nc32)cc1Cl` [Compound 60]: 1e-08 to 1e-07 M; `COCCOc1cccc(-n2nnc3cnc(Nc4ccc(OCCN5CCN(C)CC5)cc4)nc32)c1` [Compound 153]: 1e-08 to 1e-07 M.
For `COc1cccc(-n2nnc3cnc(Nc4cccc(-c5nccn5C)c4)nc32)c1` [Compound 17], the IC50 was less than 1e-08 M.
In the case of `CSc1ccc(-n2nnc3cnc(Nc4cccc(-c5nccn5C)c4)nc32)cc1` [Compound 55], the IC50 is 1e-08 to 1e-07 M.
Take `Cn1ccnc1-c1cccc(Nc2ncc3nnn(-c4ccc(CCO)cc4)c3n2)c1` [Compound 56]: the IC50 was 1e-08 to 1e-07 M.
Same read-out and setting: next, `Fc1cccc(-n2nnc3cnc(Nc4cccc(-c5cncnc5)c4)nc32)c1` [Compound 31]: less than 1e-08 M.
Still for that read-out and setting: the result for `Cc1cccc(-n2nnc3cnc(Nc4cccc(-c5nccn5C)c4)nc32)c1` [Compound 14] reads less than 1e-08 M; that for `COCCOCc1cccc(-n2nnc3cnc(Nc4ccc(N5CCOCC5)cc4)nc32)c1` [Compound 107], less than 1e-08 M.
Same read-out and setting: the result for `Brc1cccc(-n2nnc3cnc(Nc4ccc(-n5cncn5)cc4)nc32)c1` [Compound 51] reads 1e-08 to 1e-07 M; that for `COc1ccc(-n2nnc3cnc(Nc4cccc(-c5nccn5C)c4)nc32)cc1F` [Compound 61], 1e-08 to 1e-07 M.

Another experiment concerns the target GSK3alpha (Homo sapiens, UniProt P49840). Put plainly: GSK3alpha assay (same as the GSK3beta assay, 0.25 ng/μl GSK3alpha). The class given is biochemical. The note with it: ranges of pIC50 (−log IC50 (M)), 1 μM ATP, read-out: GSK3a pIC50 (converted). The protocol:
as §1
The GSK3alpha assay was performed in the same way as described above for the GSK3beta assay except for the concentration of GSK3alpha which is 0.25 ng/μl.
In the case of `Fc1cccc(-n2nnc3cnc(Nc4cccc(-c5cc[nH]n5)c4)nc32)c1` [Compound 22], the IC50 was less than 1e-08 M.
Same read-out and setting: next, `Cc1nc(-c2cccc(Nc3ncc4nnn(-c5cccc(F)c5)c4n3)c2)cs1` [Compound 21]: less than 1e-08 M.
Still for that read-out and setting: next, `Nc1nccc(-c2cccc(Nc3ncc4nnn(-c5cccc(CNC(=O)C6CC6)c5)c4n3)c2)n1` [Compound 119]: 1e-08 to 1e-07 M; `COCCOCc1cccc(-n2nnc3cnc(Nc4ccc(CN5CCC(O)CC5)cc4)nc32)c1` [Compound 110]: 1e-08 to 1e-07 M.
For `OCCc1cccc(-n2nnc3cnc(Nc4cccc(-c5nnn[nH]5)c4)nc32)c1` [Compound 75], the IC50 is 1e-08 to 1e-07 M.
Consider `Cc1nccc(-c2cccc(Nc3ncc4nnn(-c5cccc(F)c5)c4n3)c2)n1` [Compound 32], for which the IC50 was less than 1e-08 M.
Still for that read-out and setting: next, `Nc1nccc(-c2cccc(Nc3ncc4nnn(-c5ccccc5)c4n3)c2)n1` [Compound 151]: less than 1e-08 M.
`COCCOc1cccc(-n2nnc3cnc(Nc4ccc(OCCCN5CCN(C)CC5)cc4)nc32)c1` [Compound 135]: the IC50 was 1e-08 to 1e-07 M.
Take `CC(=O)NCc1cccc(-n2nnc3cnc(Nc4cccc(-c5nnnn5C)c4)nc32)c1` [Compound 116]: the IC50 is less than 1e-08 M.
On the same count and under the same terms, the result for `COc1cccc(-n2nnc3cnc(Nc4cccc(-c5cnco5)c4)nc32)c1` [Compound 16] reads less than 1e-08 M; that for `CN1CCN(Cc2ccc(Nc3ncc4nnn(-c5cccc(CCO)c5)c4n3)cc2)CC1` [Compound 78], less than 1e-08 M.
The same measure, in the same setting: next, `CN1CCN(c2ccc(Nc3ncc4nnn(-c5cccc(CCO)c5)c4n3)cc2)CC1` [Compound 77]: less than 1e-08 M; `COc1cccc(-n2nnc3cnc(Nc4cccc(N5CCN(C)CC5)c4)nc32)c1` [Compound 129]: 1e-08 to 1e-07 M; `Fc1cccc(-n2nnc3cnc(Nc4ccc(-c5cnco5)cc4)nc32)c1` [Compound 38]: 1e-08 to 1e-07 M.
The same measure, in the same setting: next, `COc1cccc(-n2nnc3cnc(Nc4cccc(-c5nnnn5C)c4)nc32)c1` [Compound 128]: less than 1e-08 M; `CN1CCN(c2cccc(Nc3ncc4nnn(-c5cccc(F)c5)c4n3)c2)CC1` [Compound 36]: less than 1e-08 M; `Cn1nnnc1-c1cccc(Nc2ncc3nnn(-c4cccc(CCO)c4)c3n2)c1` [Compound 76]: less than 1e-08 M.
Turning to `Cn1cc(Br)c(-c2cccc(Nc3ncc4nnn(-c5cccc(CCO)c5)c4n3)c2)n1` [Compound 152], the IC50 was less than 1e-08 M.
For the molecule `Fc1cccc(-n2nnc3cnc(Nc4cccc(-c5cnco5)c4)nc32)c1` [Compound 20], the IC50 was less than 1e-08 M.
Still for that read-out and setting: next, `COCCOCc1cccc(-n2nnc3cnc(Nc4ccc(OCCCN5CCN(C)CC5)cc4)nc32)c1` [Compound 113]: 1e-08 M; `COCc1cccc(-n2nnc3cnc(Nc4ccc(C(=O)N5CCN(C)CC5)cc4)nc32)c1` [Compound 103]: less than 1e-08 M; `COCCOCc1cccc(-n2nnc3cnc(Nc4ccc(N5CCN(C)CC5)cc4)nc32)c1` [Compound 108]: 1e-08 to 1e-07 M.
Same read-out and setting: the result for `COCc1cccc(-n2nnc3cnc(Nc4ccc(OCCCN5CCN(C)CC5)cc4)nc32)c1` [Compound 106] reads less than 1e-08 M.
Still for that read-out and setting: next, `Fc1cccc(-n2nnc3cnc(Nc4ccc(OCCCN5CCCCC5)cc4)nc32)c1` [Compound 142]: 1e-08 to 1e-07 M.
Turning to `COc1cccc(-n2nnc3cnc(Nc4cccc(-c5ccnc(N)n5)c4)nc32)c1` [Compound 19], the IC50 was less than 1e-08 M.
Same read-out and setting: the result for `CN1CCN(CCOc2ccc(Nc3ncc4nnn(-c5cccc(CCO)c5)c4n3)cc2)CC1` [Compound 82] reads less than 1e-08 M.
Still for that read-out and setting: the result for `O=C(O)c1cc(Nc2ncc3nnn(-c4cccc(F)c4)c3n2)ccc1N1CCOCC1` [Compound 150] reads 1e-08 to 1e-07 M.
